Data published in ChEMBL document CHEMBL5356969, “Functional evaluation of an electrophilic focused library to identify a covalent inhibitor against intrinsically disordered circadian clock transcription factors” (Bioorg Med Chem Lett, 2024).
The source made the active and inactive calls. No cut-off for these calls is given here.

Assays:
[1] = Thiol reactivity of compound assessed as second order rate constant at 200 uM in presence of TCEP by Ellman's method; format: ADME
[2] = Inhibition of N-terminal (His)6/thioredoxin-tagged recombinant human BMAL1/CLOCK heterodimer expressed in Escherichia coli interaction with 5'-FAM-labeled Per2 E-box DNA (unknown origin) assessed as reduction in fluorescence intensity at 500 uM incubated for 40 mins by FP assay
[3] = Inhibition of N-terminal (His)6/thioredoxin-tagged recombinant human BMAL1/CLOCK heterodimer expressed in Escherichia coli interaction with FAM-labeled E-box DNA (unknown origin) assessed as reduction in fluorescence intensity upto 1000 uM
[4] = Inhibition of N-terminal (His)6/thioredoxin-tagged recombinant human BMAL1/CLOCK heterodimer expressed in Escherichia coli interaction with 5'-FAM-labeled Per2 E-box DNA (unknown origin) assessed as reduction in fluorescence intensity incubated for 40 mins by FP assay
[5] = Inhibition of N-terminal (His)6/thioredoxin-tagged recombinant human BMAL1/CLOCK heterodimer expressed in Escherichia coli interaction with 5'-FAM-labeled Per2 E-box DNA (unknown origin) assessed as reduction in fluorescence intensity at 500 uM incubated for 40 mins by FP assay relative to control
[6] = Inhibition of N-terminal (His)6/thioredoxin-tagged recombinant human BMAL1/CLOCK heterodimer expressed in Escherichia coli interaction with FAM-labeled E-box DNA (unknown origin) assessed as reduction in fluorescence intensity at 50 uM pretreated with iodoacetamide followed by compound treatment

Structure (SMILES) | K [1] | inhibition [2] | other results
O=C(CCl)Nc1cccc(C(F)(F)F)c1 | 3.18 10^-5/M/s | – | –
C=CC(=O)NC(C)C | – | inactive | –
NC(=O)CI [IODOACETAMIDE] | 15.9 10^-5/M/s | – | inhibition [3]: inactive
O=C(CCl)Nc1ccccc1 | – | inactive | –
O=C(CCl)NCc1ccccc1Cl | – | inactive | –
C=CC(=O)Nc1cc(C(F)(F)F)cc(C(F)(F)F)c1 | 0.38 10^-5/M/s | – | IC50 [4]: 500 µM
O=C(CCl)Nc1cc(C(F)(F)F)cc(C(F)(F)F)c1 | 4.61 10^-5/M/s | – | inhibition [3]: Active; inhibition [5]: 60%; IC50 [4]: 150 µM; inhibition [6]: inactive
O=C(CCl)NC1CCCCC1 | – | inactive | –
C=CC(=O)NC1CCCCC1 | – | inactive | –
O=C(CCl)NCc1ccc(Cl)cc1 | – | inactive | –
CC(C)NC(=O)CCl | – | inactive | –
C=CC(=O)Nc1cccc2ccccc12 | – | inactive | –
O=C1C=CC(=O)c2nccnc21 | – | – | inhibition [6]: inactive
O=C(CCl)Nc1cccc2ccccc12 | – | inactive | –
C=CC(=O)NCc1ccc(Cl)cc1 | – | inactive | –
C=CC(=O)NCc1ccccc1Cl | – | inactive | –
O=C(CCl)Nc1ccc(C(F)(F)F)cc1 | 4.47 10^-5/M/s | – | inhibition [3]: inactive
C=CC(=O)Nc1ccccc1 | – | inactive | –
O=C(CCl)Nc1ccccc1C(F)(F)F | 0.63 10^-5/M/s | – | –
